We go through 11 compounds from ChEMBL document CHEMBL1201862, “PubChem BioAssay data set” (2004).

The structures appear in SMILES notation.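 96-well plates; 48 h exposure; 5 concentrations. Endpoints by linear interpolation between flanking doses. Not reached: highest tested concentration assigned. GI50: concentration for 50% inhibition of growth.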 Calls of active or inactive are those of the source. Rule as the data show it: active = GI50 up to about 1.1 µM and inactive = higher.

Holding throughout (assay): NCI anticancer screen, dose series, 48 h
Assay [1] concerns CAKI-1.
Assay [2] relates to NCI-H226.
The subject of assay [3] is RXF 393.
Assay [4] relates to OVCAR-5.
For assay [5], the system named is NCI-H23.
Assay [6] relates to COLO 205.
Assay [7] concerns SF-268.
Assay [8] concerns Malme-3M.
The test system of assay [9] is CCRF-CEM.
The test system of assay [10] is SN12C.
Assay [11] relates to MDA-N.
Assay [12] relates to IGROV-1.
The subject of assay [13] is PC-3.
The test system of assay [14] is SK-MEL-2.
In assay [15] the test system is NCI-H460.
Assay [16] has as its system SF-539.
Assay [17] deals with TK-10.
The test system of assay [18] is UO-31.
Assay [19] deals with SNB-75.
Assay [20] relates to HCC 2998.

For the compound `CSCCC(C(=O)O)N(C)C` (stereo not given), the GI50 in assay [1], in assay [2], in assay [3], in [4], in [5] and in [6] was > 100 µM (inactive) each time. The GI50 in [7], in assay [8], in assay [9], in assay [10], in assay [11] and in [12] was > 100 µM (inactive) throughout. Also, the GI50 in [13], in [14], in assay [15], in [16], in assay [17] and in assay [18] was > 100 µM (inactive) in each case. Besides, the GI50 in assay [19] is > 100 µM (inactive).
For `Cc1ccc(O)c(C2=CC(c3cccc(Br)c3)SC(=N)N2)c1` (stereo not given), the GI50 is 28.4 µM (inactive) in assay [1]; 26.9 µM (inactive) in [2]; 19.5 µM (inactive) in assay [3]; 29.5 µM (inactive) in assay [4]; 25.6 µM (inactive) in assay [5]; 17.5 µM (inactive) in assay [6]. The GI50 was 28.8 µM (inactive) in assay [7]; 25.2 µM (inactive) in [8]; 25.6 µM (inactive) in assay [9]; 20.8 µM (inactive) in [10]; 19.7 µM (inactive) in assay [11]; 18.8 µM (inactive) in assay [12]. Besides, the GI50 in [13] was 26.1 µM (inactive); in [14], 18.2 µM (inactive); in assay [15], 20.5 µM (inactive); in assay [16], 22.4 µM (inactive); in assay [17], 19.6 µM (inactive); in assay [18], 25 µM (inactive). For the same compound, the GI50 in assay [19] was 19.5 µM (inactive).
With `COc1cc([C@@H]2c3cc4c(cc3[C@@H](NCCNCCO)[C@H]3COC(=O)[C@H]23)OCO4)cc(OC)c1O`, the GI50 in [1] was 2.83 µM (inactive); in assay [2], 1.37 µM (inactive); in assay [3], 2.02 µM (inactive); in assay [5] it was 1.08 µM (active); in [6], 2.42 µM (inactive); in assay [9] it was 0.0861 µM (active). In addition, the GI50 was 3.88 µM (inactive) in assay [11]; 1.3 µM (inactive) in assay [12]; 3.78 µM (inactive) in assay [13]; 2.78 µM (inactive) in assay [14]; 0.0951 µM (active) in [15]; 7.38 µM (inactive) in [17]. Moreover, the GI50 in assay [18] is 15.4 µM (inactive); in assay [19], 1.19 µM (inactive).
As for `CC(CCCCNC(=O)OC(C)(C)C)NC(=O)NC(C)CCCCNC(=O)OC(C)(C)C` (stereo not given), the GI50 in [1] was > 100 µM (inactive); in [2] it was 54 µM (inactive); in assay [3] it was > 100 µM (inactive); in assay [4] it was > 100 µM (inactive); in [5], > 100 µM (inactive); in assay [6], 56.6 µM (inactive). Moreover, the GI50 is > 100 µM (inactive) in assay [7]; > 100 µM (inactive) in [8]; 6.21 µM (inactive) in assay [9]; > 100 µM (inactive) in [10]; 72.6 µM (inactive) in assay [11]; > 100 µM (inactive) in assay [12]. For the same compound, the GI50 in assay [13] is > 100 µM (inactive); in [15] it was > 100 µM (inactive); in [17], 31.3 µM (inactive); in assay [18], > 100 µM (inactive); in assay [19] it was > 100 µM (inactive).
In the case of `CCCCOC(=O)C(NC(C(=O)OCCCC)c1cc(C(C)(C)C)c(O)c(C(C)(C)C)c1)c1cc(C(C)(C)C)c(O)c(C(C)(C)C)c1` (stereo not given), the GI50 in [1], in [2], in [4], in [5], in assay [6] and in assay [7] was > 100 µM (inactive) each time. For the same compound, the GI50 in assay [8] was > 100 µM (inactive); in assay [9], 73.8 µM (inactive); in assay [10], > 100 µM (inactive); in [11] it was > 100 µM (inactive); in [12], > 100 µM (inactive); in assay [13], > 100 µM (inactive). Further, the GI50 in [14] is > 100 µM (inactive); in assay [16], > 100 µM (inactive); in assay [17] it was > 100 µM (inactive); in [18], 74.6 µM (inactive); in [19] it was 8.63 µM (inactive).
For the compound `O=C(O)c1cc2ccccc2c(/N=N/c2ccccc2)c1O`, the GI50 in assay [1] was 35.6 µM (inactive); in assay [3] it was 34.9 µM (inactive); in assay [4], 24.9 µM (inactive); in assay [5], 16.7 µM (inactive); in assay [6], 17.9 µM (inactive); in assay [7], 30 µM (inactive). Besides, the GI50 in assay [8] was 13.1 µM (inactive); in [9], 38.5 µM (inactive); in assay [10], 23.3 µM (inactive); in assay [11], 19.1 µM (inactive); in [12] it was 34.1 µM (inactive); in assay [13], 18.5 µM (inactive). The GI50 in [14] was > 10 µM (inactive); in assay [17], 29 µM (inactive); in assay [18], 31.2 µM (inactive); in assay [19] it was 19.8 µM (inactive).
For `COC(=O)Nc1nc2cc(NS(=O)(=O)c3ccc(F)cc3)ccc2[nH]1`, the GI50 in assay [1] was 23.6 µM (inactive); in [2] it was 77.8 µM (inactive); in assay [3], 18.5 µM (inactive); in assay [4], 45.2 µM (inactive); in assay [5] it was 21.8 µM (inactive); in assay [6], 5.25 µM (inactive). For the same compound, the GI50 was 72.6 µM (inactive) in assay [7]; 7.5 µM (inactive) in assay [8]; 13.7 µM (inactive) in assay [9]; 68.9 µM (inactive) in [10]; 2.14 µM (inactive) in assay [11]; 2.15 µM (inactive) in assay [12]. The GI50 in assay [13] is 22.9 µM (inactive); in assay [14], 31 µM (inactive); in [15], 24.7 µM (inactive); in assay [16], 12.2 µM (inactive); in [17], 14.4 µM (inactive); in assay [18], 37.6 µM (inactive). For the same compound, the GI50 in assay [19] was 6.49 µM (inactive).
In the case of `COc1ccc2c(ccc3c(COC(=O)NC(C)C)c(COC(=O)NC(C)C)n(C)c32)c1`, the GI50 is 2.11 µM (inactive) in assay [1]; 3.08 µM (inactive) in [2]; 9.02 µM (inactive) in assay [3]; 9.79 µM (inactive) in [4]; 3.5 µM (inactive) in assay [5]; 10.8 µM (inactive) in assay [6]. Also, the GI50 in assay [7] is 5.19 µM (inactive); in assay [8] it was 2.54 µM (inactive); in assay [9] it was 3.21 µM (inactive); in [11] it was 12.3 µM (inactive); in [12], 4.13 µM (inactive); in assay [13], 11.1 µM (inactive). For the same compound, the GI50 in assay [14] was 17.1 µM (inactive); in [15], 0.414 µM (active); in [16] it was 5.82 µM (inactive); in assay [17] it was 11.2 µM (inactive); in [18], 5.98 µM (inactive); in [19], 4.6 µM (inactive).
For the compound `O=[N+]([O-])c1cccc(/C=N/NC2=CS(=O)(=O)C=C2)c1`, the GI50 in assay [1], in [2], in assay [3], in assay [4], in [5] and in assay [6] was > 100 µM (inactive) each time. Also, the GI50 in assay [7], in [8], in assay [9], in assay [10], in assay [11] and in assay [12] was > 100 µM (inactive) in each case. Moreover, the GI50 in [13], in assay [14], in assay [15], in assay [16], in assay [17] and in [18] was > 100 µM (inactive) each time. Also, in assay [19], the GI50 is 91 µM (inactive).
With `Cc1c(-c2ccc(O)cc2)n(CCCCCCNCCOC(=O)NCCCc2ccc(N(CCCl)CCCl)cc2)c2ccc(O)cc12`, the GI50 in [1] is 11.1 µM (inactive); in assay [4], 15.1 µM (inactive); in assay [5] it was 1.78 µM (inactive); in assay [6], 2.64 µM (inactive); in [7], 1.52 µM (inactive); in [8] it was 1.6 µM (inactive). For the same compound, the GI50 in [20] is 1.86 µM (inactive); in assay [9], 1.67 µM (inactive); in assay [10], 2.4 µM (inactive); in [11] it was 1.73 µM (inactive); in [12], 2.07 µM (inactive); in assay [13] it was 2.47 µM (inactive). Moreover, the GI50 is 10.6 µM (inactive) in [14]; 1.52 µM (inactive) in [15]; 1.64 µM (inactive) in assay [16]; 2.24 µM (inactive) in [17]; 1.98 µM (inactive) in assay [19].
`CC(C)=CCc1cc(/C=C/C(=O)O)cc(CC=C(C)C)c1O` [ARTEPILLIN]: the GI50 in assay [1], in [4], in [5], in [6], in [7] and in [9] was > 100 µM (inactive) in each case. For the same compound, the GI50 in [10] was > 100 µM (inactive); in assay [11], > 100 µM (inactive); in assay [12], 73.5 µM (inactive); in assay [13], > 100 µM (inactive); in assay [14] it was > 100 µM (inactive); in [15], > 100 µM (inactive). Further, the GI50 was > 100 µM (inactive) in assay [16], > 100 µM (inactive) in assay [17] and 87.5 µM (inactive) in assay [18].
